In PubChem BioAssay (NCI):
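Briefly, cells in 96-well plates were exposed to five compound concentrations for 48 h, and endpoints were estimated by linear interpolation. The concentration for 50% growth inhibition is given as GI50. The concentration for full growth arrest is given as TGI.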

Experiments:
Assay in all cases: growth of human tumour cells (NCI), 48 h
[1] = test system: MCF7 breast
[2] = test system: K-562 leukemia
[3] = test system: HCC-2998 colon
[4] = test system: SR leukemia
[5] = test system: OVCAR-3 ovarian
[6] = test system: PC-3 prostate
[7] = test system: KM12 colon
[8] = test system: RPMI-8226 leukemia
[9] = test system: LOX IMVI melanoma
[10] = test system: SF-295 CNS
[11] = test system: UO-31 renal
[12] = test system: NCI-H226 lung
[13] = test system: COLO 205 colon
[14] = test system: EKVX NSCLC
[15] = test system: HOP-92 NSCLC
[16] = test system: NCI/ADR-RES ovarian
[17] = test system: ACHN renal
[18] = test system: MALME-3M melanoma
[19] = test system: IGROV1 ovarian
[20] = test system: DU-145 prostate
[21] = test system: UACC-257 melanoma
[22] = test system: MDA-MB-468 breast
[23] = test system: OVCAR-8 ovarian
[24] = test system: HOP-62 NSCLC
[25] = test system: BT-549 breast
[26] = test system: A498 renal
[27] = test system: NCI-H522 lung
[28] = test system: MOLT-4 leukemia
[29] = test system: SF-539 CNS
[30] = test system: OVCAR-4 ovarian
[31] = test system: SK-MEL-28 melanoma
[32] = test system: SK-MEL-2 melanoma
[33] = test system: SN12C renal
[34] = test system: 786-0 renal
[35] = test system: CCRF-CEM leukemia
[36] = test system: SNB-19 CNS
[37] = test system: SF-268 CNS
[38] = test system: A549 NSCLC
[39] = test system: RXF 393 renal
[40] = test system: SK-OV-3 ovarian
[41] = test system: MDA-MB-435
[42] = test system: UACC-62 melanoma
[43] = test system: HCT-15 colon
[44] = test system: HS 578T breast
[45] = test system: NCI-H23 lung
[46] = test system: T-47D breast
[47] = test system: SK-MEL-5 melanoma
[48] = test system: TK-10 renal
[49] = test system: NCI-H460 lung
[50] = test system: CAKI-1 renal
[51] = test system: MDA-MB-231 breast
[52] = test system: M14 melanoma
[53] = test system: HT29 colon
[54] = test system: OVCAR-5 ovarian

COc1ccc(C(=O)/C=C/c2cc3c(cc2Br)OCO3)cc1S(N)(=O)=O
GI50 [1]: 3.84 µM | TGI [1]: 19.5 µM | GI50 [2]: 0.445 µM | TGI [2]: 11.8 µM | GI50 [3]: 5.39 µM | TGI [3]: 24.2 µM | GI50 [4]: 1.54 µM | TGI [4]: 4.58 µM | GI50 [5]: 2.55 µM | TGI [5]: 6.62 µM | GI50 [6]: 6.7 µM | TGI [6]: 28.9 µM | GI50 [7]: 2.45 µM | TGI [7]: 6 µM | GI50 [8]: 2.87 µM | TGI [8]: 10.6 µM | GI50 [9]: 1.68 µM | TGI [9]: 3.16 µM | GI50 [10]: 6.21 µM | TGI [10]: 25.4 µM | GI50 [11]: 2.64 µM | TGI [11]: 12.8 µM | GI50 [12]: 2.8 µM | TGI [12]: 10.9 µM | GI50 [13]: 5.39 µM | TGI [13]: > 100 µM | GI50 [14]: 9.71 µM | TGI [14]: 42.9 µM | GI50 [15]: 5.46 µM | TGI [15]: 23.5 µM | GI50 [16]: 2.3 µM | TGI [16]: 6 µM | GI50 [17]: 1.97 µM | TGI [17]: 4.11 µM | GI50 [18]: 11.6 µM | TGI [18]: 27 µM | GI50 [19]: 2.8 µM | TGI [19]: 12.7 µM | GI50 [20]: 3.71 µM | TGI [20]: 12.7 µM | GI50 [21]: 14.9 µM | TGI [21]: 42.7 µM | GI50 [22]: 4.98 µM | TGI [22]: 24.8 µM | GI50 [23]: 2.91 µM | TGI [23]: > 100 µM | GI50 [24]: 2.62 µM | TGI [24]: > 100 µM | GI50 [25]: 5.99 µM | TGI [25]: 49 µM | GI50 [26]: 15.2 µM | TGI [26]: 28.8 µM | GI50 [27]: 2.79 µM | TGI [27]: 14.9 µM | GI50 [28]: 2.3 µM | TGI [28]: 7.68 µM | GI50 [29]: 1.72 µM | TGI [29]: 3.27 µM | GI50 [30]: 3.72 µM | TGI [30]: 32.3 µM | GI50 [31]: 14.3 µM | TGI [31]: 30.2 µM | GI50 [32]: 14.7 µM | TGI [32]: 30.2 µM | GI50 [33]: 2.05 µM | TGI [33]: 5.32 µM | GI50 [34]: 3.68 µM | TGI [34]: 15.4 µM | GI50 [35]: 6.67 µM | TGI [35]: 38.1 µM | GI50 [36]: 5.77 µM | TGI [36]: 29.7 µM | GI50 [37]: 5.33 µM | TGI [37]: 29.9 µM | GI50 [38]: 2.7 µM | TGI [38]: 10.5 µM | GI50 [39]: 2.77 µM | TGI [39]: 17.5 µM | GI50 [40]: 14.4 µM | TGI [40]: 34.1 µM | GI50 [41]: 13.6 µM | TGI [41]: 37.5 µM | GI50 [42]: 4.07 µM | TGI [42]: 23.5 µM | GI50 [43]: 1.78 µM | TGI [43]: 3.79 µM | GI50 [44]: 20.8 µM | TGI [44]: > 100 µM | GI50 [45]: 4.24 µM | TGI [45]: 28 µM | GI50 [46]: 5.99 µM | TGI [46]: 33 µM | GI50 [47]: 9.12 µM | TGI [47]: 29.2 µM | GI50 [48]: 14.6 µM | TGI [48]: 36.3 µM | GI50 [49]: 3.95 µM | TGI [49]: > 100 µM | GI50 [50]: 4.55 µM | TGI [50]: 23.9 µM | GI50 [51]: 2.87 µM | TGI [51]: 8.68 µM | GI50 [52]: 9.16 µM | TGI [52]: 25.5 µM | GI50 [53]: 1.88 µM | TGI [53]: 3.66 µM | GI50 [54]: 2.65 µM | TGI [54]: 10.2 µM
